Measurements from patent US9101638B2, “Boronic acid derivatives and therapeutic uses thereof” (Rempex Pharmaceuticals, Inc., priority 2013, dated 2015).
Like-named read-outs stand apart in the source and are kept apart here.

Experiments:
Urokinase = biological target: T1, Urokinase (Homo sapiens, UniProt P00749); assay: Serine protease inhibition: urokinase; assay type: biochemical, mammalian; details: Table 8A, class symbols; read-out: IC50 Urokinase
T1 construct: purchased Calbiochem 672112
Experimental: (§1) The effect of selected BLIs on the enzymatic activity of some common mammalian serine proteases was evaluated.
(§2) 50 μl of the diluted enzyme was mixed with 50 μl of inhibitor at various concentrations and 50 μl of corresponding buffer (Table 7). Reaction mixtures were incubated for 10 min at 37° C. Subsequently, 50 μl of corresponding substrate (Table 7) was added and absorbance or fluorescence was monitored for 30 min on SpectraMax M2 plate reader (Molecular Devices). 4-(2-Aminoethyl)benzenesulfonyl fluoride hydrochloride (AEBSF) and leupeptin were used as positive controls. Rates of reaction were calculated and presented relative to “no treatment” control.

PAM1154/KPC-2 = assay: Biapenem potentiation in PAM1154/KPC-2 (MexAB-OprM lacking); assay type: cell-based, Pseudomonas aeruginosa
Experimental: (§3) Efflux of BLIs from Pseudomonas aeruginosa by the MexAB-OprM efflux pump was also evaluated. […] Due to expression of KPC-2 both strains became resistant to biapenem. […] Potency of BLIs to potentiate biapenem in these strains was determined. […] The ratio of MPC64 values for each BLI in PAM1032/KPC-2 (efflux proficient) and PAM1154/KPC-2 (efflux deficient) was determined to generate the Efflux Index (EI).

Elastase = biological target: T2, Elastase (Sus scrofa, UniProt P00772); assay: Serine protease inhibition: elastase; assay type: biochemical, mammalian; details: Table 8A, class symbols; read-out: IC50 Elastase
T2 construct: purchased Calbiochem 324682
T2 sequence (P00772 27-266): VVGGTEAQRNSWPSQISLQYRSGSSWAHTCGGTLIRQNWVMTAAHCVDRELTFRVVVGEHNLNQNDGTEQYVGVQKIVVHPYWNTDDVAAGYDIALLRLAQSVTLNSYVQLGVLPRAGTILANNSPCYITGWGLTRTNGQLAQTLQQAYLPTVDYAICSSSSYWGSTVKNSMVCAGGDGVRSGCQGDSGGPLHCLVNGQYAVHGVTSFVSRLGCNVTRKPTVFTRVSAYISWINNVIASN
Experimental: as §1, §2

KP1005 (CTX-M-14) = assay: Potentiation of aztreonam, strain KP1005; assay type: cell-based
SHV-12 = SHV-12 (Klebsiella pneumoniae, UniProt P0AD64, E235K/G234S/L31Q); assay: Inhibition of nitrocefin cleavage by purified SHV-12; assay type: biochemical
SHV-12, sequence (P0AD64 22-286 L31Q/G234S/E235K): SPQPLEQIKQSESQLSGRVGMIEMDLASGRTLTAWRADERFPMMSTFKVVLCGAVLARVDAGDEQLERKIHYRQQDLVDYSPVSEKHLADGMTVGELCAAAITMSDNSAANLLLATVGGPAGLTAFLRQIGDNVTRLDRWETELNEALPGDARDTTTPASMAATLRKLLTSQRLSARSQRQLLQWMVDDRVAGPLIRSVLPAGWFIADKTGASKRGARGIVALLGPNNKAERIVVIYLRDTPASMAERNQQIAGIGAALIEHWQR
In short: (§4)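 Readout: nitrocefin hydrolysis, A490 recorded every 10 sec over 10 min. Enzyme and inhibitor (varied concentrations) preincubated 10 min, RT, in reaction buffer before substrate addition.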

Chymase = biological target: T3, Chymase (Homo sapiens, UniProt P23946); assay: Serine protease inhibition: chymase; assay type: biochemical, mammalian; details: Table 8A, class symbols; read-out: IC50 Chymase
T3 construct: purchased Enzo Lifescience BML-SE281
T3 sequence (P23946 22-247): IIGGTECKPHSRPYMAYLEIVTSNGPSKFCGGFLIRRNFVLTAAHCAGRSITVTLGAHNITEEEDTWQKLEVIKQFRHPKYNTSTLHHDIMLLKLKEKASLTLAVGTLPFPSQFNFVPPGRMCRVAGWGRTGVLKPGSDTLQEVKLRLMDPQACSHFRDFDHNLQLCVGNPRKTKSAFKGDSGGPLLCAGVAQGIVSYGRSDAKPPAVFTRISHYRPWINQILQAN
Experimental: as §1, §2

KP1004 (K-2) = assay: Potentiation of aztreonam, strain KP1004; assay type: cell-based; details: minimum BLI concentration inhibiting growth with 4 μg/mL aztreonam
Plasmin = biological target: T4, Plasmin (Homo sapiens, UniProt P00747); assay: Serine protease inhibition: plasmin; assay type: biochemical, mammalian; details: Table 8A, class symbols; read-out: IC50 Plasmin
T4 construct: Plasmin; MPBio; 19419890; purchased MPBio 19419890
T4 sequence (P00747 581-810 limits assumed, species assumed): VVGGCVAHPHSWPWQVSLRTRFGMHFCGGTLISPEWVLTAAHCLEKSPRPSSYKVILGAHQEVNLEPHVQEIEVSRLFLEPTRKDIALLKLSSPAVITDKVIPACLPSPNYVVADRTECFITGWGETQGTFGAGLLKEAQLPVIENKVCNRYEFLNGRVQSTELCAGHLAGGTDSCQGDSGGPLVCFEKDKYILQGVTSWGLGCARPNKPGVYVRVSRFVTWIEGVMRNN
T4 sequence (P00747 97-580 partner limits assumed, species assumed): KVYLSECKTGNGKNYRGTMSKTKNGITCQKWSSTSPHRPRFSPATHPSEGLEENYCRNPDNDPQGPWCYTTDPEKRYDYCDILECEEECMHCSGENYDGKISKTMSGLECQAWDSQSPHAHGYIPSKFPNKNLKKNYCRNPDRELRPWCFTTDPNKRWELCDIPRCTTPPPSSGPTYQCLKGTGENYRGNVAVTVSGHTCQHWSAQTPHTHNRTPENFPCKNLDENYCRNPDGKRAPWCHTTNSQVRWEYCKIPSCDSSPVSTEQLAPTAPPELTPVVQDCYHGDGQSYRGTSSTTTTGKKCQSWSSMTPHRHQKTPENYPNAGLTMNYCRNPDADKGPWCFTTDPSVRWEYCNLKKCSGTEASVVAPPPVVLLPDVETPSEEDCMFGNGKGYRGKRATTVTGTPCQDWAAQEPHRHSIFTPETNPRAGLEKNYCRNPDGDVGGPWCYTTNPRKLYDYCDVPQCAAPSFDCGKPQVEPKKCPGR
Experimental: as §1, §2

[1] = biological target: T5, Dipeptidyl peptidase 8 (DPP8) (Homo sapiens, UniProt Q6V1X1); assay: Serine protease inhibition: DPP8; assay type: biochemical, mammalian; details: Table 8B; read-out: IC50 DPP8
T5 construct: purchased BPS Bioscience 80080
T5 sequence (Q6V1X1 whole entry): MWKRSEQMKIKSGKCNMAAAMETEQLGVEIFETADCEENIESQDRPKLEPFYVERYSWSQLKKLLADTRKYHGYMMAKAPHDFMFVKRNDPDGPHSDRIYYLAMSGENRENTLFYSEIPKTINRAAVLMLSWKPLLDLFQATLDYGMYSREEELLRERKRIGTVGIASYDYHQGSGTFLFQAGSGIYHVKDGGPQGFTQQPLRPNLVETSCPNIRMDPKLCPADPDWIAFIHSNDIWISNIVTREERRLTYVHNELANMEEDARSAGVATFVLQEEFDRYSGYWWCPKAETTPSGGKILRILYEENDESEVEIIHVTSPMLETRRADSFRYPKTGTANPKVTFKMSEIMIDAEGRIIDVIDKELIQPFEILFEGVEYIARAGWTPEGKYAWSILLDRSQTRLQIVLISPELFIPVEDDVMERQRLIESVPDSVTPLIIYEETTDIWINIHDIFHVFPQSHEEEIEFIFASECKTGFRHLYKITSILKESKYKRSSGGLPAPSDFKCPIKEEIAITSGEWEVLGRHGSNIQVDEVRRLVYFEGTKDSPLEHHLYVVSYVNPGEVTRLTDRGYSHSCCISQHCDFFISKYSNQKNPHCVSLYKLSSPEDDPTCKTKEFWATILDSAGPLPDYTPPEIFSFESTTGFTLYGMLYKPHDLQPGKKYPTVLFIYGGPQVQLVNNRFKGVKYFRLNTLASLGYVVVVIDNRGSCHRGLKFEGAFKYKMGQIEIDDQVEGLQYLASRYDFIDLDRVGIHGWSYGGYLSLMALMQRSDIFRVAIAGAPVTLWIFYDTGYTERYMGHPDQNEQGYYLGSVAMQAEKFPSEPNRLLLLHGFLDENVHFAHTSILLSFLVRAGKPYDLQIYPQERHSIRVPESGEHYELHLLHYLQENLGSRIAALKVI
Experimental: as §1, §2

Trypsin = biological target: T6, Trypsin (Bos taurus, UniProt P00760); assay: Serine protease inhibition: trypsin; assay type: biochemical, mammalian; details: Table 8A, class symbols; read-out: IC50 Trypsin
T6 construct: purchased Calbiochem 6502
T6 sequence (P00760 24-246): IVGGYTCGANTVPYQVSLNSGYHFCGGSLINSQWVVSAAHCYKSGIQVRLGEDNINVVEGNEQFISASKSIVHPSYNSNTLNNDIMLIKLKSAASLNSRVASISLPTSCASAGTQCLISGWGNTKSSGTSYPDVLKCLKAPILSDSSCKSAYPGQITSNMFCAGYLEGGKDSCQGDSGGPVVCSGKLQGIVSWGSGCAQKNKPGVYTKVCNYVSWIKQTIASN
Experimental: as §1, §2

[2] = biological target: T7, Dipeptidyl peptidase 7 (DPP7) (Homo sapiens, UniProt Q9UHL4); assay: Serine protease inhibition: DPP7; assay type: biochemical, mammalian; details: Table 8B; read-out: IC50 DPP7
T7 construct: purchased R&D Systems 3438-SE
Experimental: as §1, §2

KP1009 (CTX-M-15) = assay: Potentiation of tigemonam, strain KP1009; details: minimum BLI concentration inhibiting growth with 4 μg/mL tigemonam
Chymotrypsin = biological target: T8, Chymotrypsin (Bos taurus, UniProt P00766); assay: Serine protease inhibition: chymotrypsin; assay type: biochemical, mammalian; details: Table 8A, class symbols; read-out: IC50 Chymotrypsin
T8 construct: purchased Calbiochem 230832
Experimental: as §1, §2

PAM1032/KPC-2 = assay: Biapenem potentiation in PAM1032/KPC-2 (MexAB-OprM overexpressed); assay type: cell-based, Pseudomonas aeruginosa
Experimental: as §3

ECL1002 = assay: Potentiation of aztreonam, strain ECL1002; assay type: cell-based; details: minimum BLI concentration inhibiting growth with 4 μg/mL aztreonam
ec308 (SHV-5) [3] = assay: Potentiation of tigemonam, strain ec308; assay type: cell-based; details: minimum BLI concentration inhibiting growth with 4 μg/mL tigemonam
KPC-2 = KPC-2 (Klebsiella pneumoniae, UniProt Q9F663); assay: Inhibition of nitrocefin cleavage by purified KPC-2; assay type: biochemical; details: nitrocefin reporter substrate, purified enzyme; read-out: Ki (KPC-2, NCF)
KPC-2, sequence (Q9F663 25-293, looked up, species assumed): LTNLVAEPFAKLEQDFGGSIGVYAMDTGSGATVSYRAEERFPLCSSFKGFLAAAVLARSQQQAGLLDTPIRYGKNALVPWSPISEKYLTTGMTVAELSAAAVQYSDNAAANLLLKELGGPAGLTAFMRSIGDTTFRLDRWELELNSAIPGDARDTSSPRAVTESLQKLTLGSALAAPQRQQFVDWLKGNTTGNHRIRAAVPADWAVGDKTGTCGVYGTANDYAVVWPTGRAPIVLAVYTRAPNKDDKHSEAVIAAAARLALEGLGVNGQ
In short: as §4

CathepsinG = biological target: T9, CathepsinG (Homo sapiens, UniProt P08311); assay: Serine protease inhibition: cathepsin G; assay type: biochemical, mammalian; details: Table 8B
T9 construct: purchased EMD Millipore 219373
T9 sequence (P08311 21-244): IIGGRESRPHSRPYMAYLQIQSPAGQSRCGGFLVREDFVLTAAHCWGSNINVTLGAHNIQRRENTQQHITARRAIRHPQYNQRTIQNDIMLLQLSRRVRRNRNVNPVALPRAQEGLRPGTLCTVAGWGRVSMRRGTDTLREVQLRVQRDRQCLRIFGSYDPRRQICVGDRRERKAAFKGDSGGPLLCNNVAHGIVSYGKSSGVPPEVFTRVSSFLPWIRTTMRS
Experimental: as §1, §2

[4] = biological target: T10, Dipeptidyl peptidase 9 (DPP9) (Homo sapiens, UniProt Q86TI2); assay: Serine protease inhibition: DPP9; assay type: biochemical, mammalian; details: Table 8B; read-out: IC50 DPP9
T10 construct: purchased BPS Bioscience 80090
T10 sequence (Q86TI2 whole entry): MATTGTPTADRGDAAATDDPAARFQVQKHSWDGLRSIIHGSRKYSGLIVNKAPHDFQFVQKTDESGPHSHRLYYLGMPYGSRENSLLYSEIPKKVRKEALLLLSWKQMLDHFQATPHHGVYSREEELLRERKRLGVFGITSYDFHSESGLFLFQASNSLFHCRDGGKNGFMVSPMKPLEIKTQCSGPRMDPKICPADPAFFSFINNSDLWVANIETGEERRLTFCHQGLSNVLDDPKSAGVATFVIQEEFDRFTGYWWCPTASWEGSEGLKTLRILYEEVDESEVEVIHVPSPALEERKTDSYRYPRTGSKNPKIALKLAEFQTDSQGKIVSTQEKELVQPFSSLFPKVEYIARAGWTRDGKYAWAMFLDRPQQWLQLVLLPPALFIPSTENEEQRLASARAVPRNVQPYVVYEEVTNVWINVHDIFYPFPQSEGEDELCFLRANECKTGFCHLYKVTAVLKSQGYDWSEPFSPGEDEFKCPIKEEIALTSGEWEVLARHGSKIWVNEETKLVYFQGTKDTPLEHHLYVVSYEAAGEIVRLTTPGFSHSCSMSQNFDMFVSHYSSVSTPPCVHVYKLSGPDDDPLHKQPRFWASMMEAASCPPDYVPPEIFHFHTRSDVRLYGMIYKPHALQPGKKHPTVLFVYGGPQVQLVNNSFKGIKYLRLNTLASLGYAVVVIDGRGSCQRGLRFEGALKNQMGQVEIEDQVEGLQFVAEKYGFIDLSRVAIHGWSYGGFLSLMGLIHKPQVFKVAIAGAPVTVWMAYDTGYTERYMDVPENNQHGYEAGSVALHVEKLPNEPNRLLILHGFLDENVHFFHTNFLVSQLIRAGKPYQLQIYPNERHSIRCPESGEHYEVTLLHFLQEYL
Experimental: as §1, §2

ec308 (SHV-5) [5] = assay: Potentiation of aztreonam, strain ec308; assay type: cell-based; details: minimum BLI concentration inhibiting growth with 4 μg/mL aztreonam
[6] = nitrocefin reporter substrate, purified enzyme, read-out: Ki (SHV-12, NCF)
[7] = BLI potency to decrease biapenem MIC 64-fold, 32 to 0.5 μg/ml, efflux proficient strain

Row | Structure (SMILES) | IC50 (Urokinase) [µM] | PAM1154/KPC-2 Biapenem MPC64 (PAM1154/KPC-2) | IC50 (Elastase) [µM] | AZT MPC4 CTX-M-14 KP1005 (KP1005 (CTX-M-14)) | Ki (SHV-12; [6]) [µM] | IC50 (Chymase) [µM] | AZT MPC4 K-2 KP1004 (KP1004 (K-2)) | IC50 (Plasmin) [µM] | IC50 [1] [µM] | IC50 (Trypsin) [µM] | IC50 [2] [µM] | TIG MPC4 CTX-M-15 KP1009 (KP1009 (CTX-M-15)) | IC50 (Chymotrypsin) [µM] | PAM1032/KPC-2 Biapenem MPC64 (PAM1032/KPC-2; [7]) | AZT MPC4 ECL1002 (ECL1002) | TIG MPC4 SHV-5 ec308 (ec308 (SHV-5) [3]) | Ki (KPC-2) [µM] | IC50 (CathepsinG) [µM] | IC50 [4] [µM] | AZT MPC4 SHV-5 ec308 (ec308 (SHV-5) [5]) | further results
1 | [N-]=[N+]=NCC(=O)N[C@H]1Cc2cccc(C(=O)O)c2OB1O [Compound 8, (R)-3-(2-azidoacetamido)-2-hydroxy-3,4-dihydro-2H-benzo[e][1,2]oxaborinine-8-carboxylic acid] | > 800 | X (key: X = Less than 10; Y = 10 to 40; Z Greater than 40) | > 800 | X (key: X = MIC of less than 1 μg/mL; Y = MIC of 1 μg/mL to 10 μg/mL; Z = MIC of greater than 10 μg/mL) | < 0.001 | > 800 | X (X = MIC of less than 1 μg/mL) | > 800 | > 500 | > 800 | > 500 | X (X = MIC of less than 1 μg/mL) | > 800 | Y (Y = 10 to 40) | Y (Y = MIC of 1 μg/mL to 10 μg/mL) | Y (Y = MIC of 1 μg/mL to 10 μg/mL) | > 0.01 | < 15 | > 500 | X (X = MIC of less than 1 μg/mL) | –
2 | CSC(=O)N[C@H]1Cc2cccc(C(=O)O)c2OB1O [Compound 11, (R)-2-hydroxy-3-(methylthiocarbonylamino)-3,4-dihydro-2H-benzo[e][1,2]oxaborinine-8-carboxylic acid] | > 800 | X (key: X = Less than 10; Y = 10 to 40; Z Greater than 40) | > 800 | Y (key: X = MIC of less than 1 μg/mL; Y = MIC of 1 μg/mL to 10 μg/mL; Z = MIC of greater than 10 μg/mL) | – | > 800 | Y (Y = MIC of 1 μg/mL to 10 μg/mL) | > 800 | > 500 | > 800 | > 500 | Y (Y = MIC of 1 μg/mL to 10 μg/mL) | > 800 | Z (Z Greater than 40) | Y (Y = MIC of 1 μg/mL to 10 μg/mL) | Y (Y = MIC of 1 μg/mL to 10 μg/mL) | > 0.01 | 15 to 500 | > 500 | X (X = MIC of less than 1 μg/mL) | Ki (SHV-12): < 0.001 µM
3 | O=C(CSC(F)F)N[C@H]1Cc2cccc(C(=O)O)c2OB1O [Compound 3, (R)-3-(2-(difluoromethylthio)acetamido)-2-hydroxy-3,4-dihydro-2H-benzo[e][1,2]oxaborinine-8-carboxylic acid] | > 800 | X (key: X = Less than 10; Y = 10 to 40; Z Greater than 40) | > 800 | X (key: X = MIC of less than 1 μg/mL; Y = MIC of 1 μg/mL to 10 μg/mL; Z = MIC of greater than 10 μg/mL) | < 0.001 | 300 to 800 | Y (Y = MIC of 1 μg/mL to 10 μg/mL) | > 800 | > 500 | > 800 | > 500 | X (X = MIC of less than 1 μg/mL) | > 800 | Z (Z Greater than 40) | Y (Y = MIC of 1 μg/mL to 10 μg/mL) | X (X = MIC of less than 1 μg/mL) | > 0.01 | < 15 | > 500 | X (X = MIC of less than 1 μg/mL) | –
4 | Nc1nnc(SCC(=O)N[C@H]2Cc3cccc(C(=O)O)c3OB2O)s1 [Compound 5, (R)-3-(2-(5-amino-1,3,4-thiadiazol-2-ylthio)acetamido)-2-hydroxy-3,4-dihydro-2H-benzo[e][1,2]oxaborinine-8-carboxylic acid] | > 800 | X (key: X = Less than 10; Y = 10 to 40; Z Greater than 40) | > 800 | X (key: X = MIC of less than 1 μg/mL; Y = MIC of 1 μg/mL to 10 μg/mL; Z = MIC of greater than 10 μg/mL) | – | 300 to 800 | Y (Y = MIC of 1 μg/mL to 10 μg/mL) | > 800 | 15 to 500 | > 800 | > 500 | X (X = MIC of less than 1 μg/mL) | > 800 | Y (Y = 10 to 40) | Y (Y = MIC of 1 μg/mL to 10 μg/mL) | Y (Y = MIC of 1 μg/mL to 10 μg/mL) | > 0.01 | < 15 | > 500 | X (X = MIC of less than 1 μg/mL) | –
5 | O=CN[C@H]1Cc2cccc(C(=O)O)c2OB1O [Compound 4, (R)-3-formamido-2-hydroxy-3,4-dihydro-2H-benzo[e][1,2]oxaborinine-8-carboxylic acid] | > 800 | X (key: X = Less than 10; Y = 10 to 40; Z Greater than 40) | > 800 | Y (key: X = MIC of less than 1 μg/mL; Y = MIC of 1 μg/mL to 10 μg/mL; Z = MIC of greater than 10 μg/mL) | 0.001 to 0.01 | > 800 | X (X = MIC of less than 1 μg/mL) | > 800 | > 500 | > 800 | > 500 | Y (Y = MIC of 1 μg/mL to 10 μg/mL) | > 800 | – | Y (Y = MIC of 1 μg/mL to 10 μg/mL) | Y (Y = MIC of 1 μg/mL to 10 μg/mL) | – | 15 to 500 | > 500 | Y (Y = MIC of 1 μg/mL to 10 μg/mL) | PAM1032/KPC-2 Biapenem MPC64 (PAM1032/KPC-2): X (key: X = Less than 10; Y = 10 to 40; Z Greater than 40)
